In US20100173865A1, “Anti-Cancer Agent-Hyaluronic Acid Conjugate Compositions and Methods” (priority 2007, published 2010):

Assays:
NMP-1 xenografts = assay: NMP-1 orthotopic (intraperitoneal) ovarian carcinoma xenograft, survival and MR imaging; type: in vivo, nude mice; details: for T/C / Mean Day of Survival/Sacrifice: qd7 × 3 i.p. from Day 7; for Mean Day of Survival/Sacrifice: mean ± SEM
Description: On Day 0, about 1×10^7 viable NMP-1 cells were injected into the peritoneal cavities of groups of 6 to 9-week-old female nude mice (Harlan Sprague Dawley, Indianapolis, Ind.). Five or more mice per experimental group were used as the basis for statistical analyses. Administration of drugs was initiated 1 week later (Day 7). […] NMP-1-implanted mice develop marked ascites as one of the earliest clinical signs of peritoneal tumor and before other aspects of tumor progression are apparent; ascitic fluid was repeatedly removed at intervals from mice, beginning around the fourth week. […] For any tumor-bearing mice that succumbed between daily observations and before the opportunity to sacrifice them, the day of death was considered to be the day before the date they were discovered as deceased. The day of humane sacrifice/death was recorded for each mouse, and these values were compared among control and treatment groups by paired or unpaired Student's t-tests for the survival analyses.
MRI studies were conducted in the MDACC Small Animal Imaging Facility (SAIF). […] Klostergaard, J., et al., Magnetic Resonance Imaging-Based Prospective Detection of Intraperitoneal Human Ovarian Carcinoma Xenografts Treatment Response, Int J Gynecol Cancer, 2006, 16 Suppl 1:111-7. Respiratory-gated, T2-weighted (TE: 45.0 ms, TR: 1215.6 ms, 0.5 mm thickness, 0.3 mm space between images) coronal images were used for initial evaluation of tumor distribution and growth in these models; images of the abdomens of these mice were acquired using a Bruker 4.7 T, 40 cm Biospec MR scanner (Bruker Biospin USA, Billerica, Mass.).
In the NMP-1 studies, mice were held for survival endpoints. In the SKOV-3ip studies, tumor measurements were performed using the Image J program (National Institutes of Health, USA). Regions of interest (ROI) were drawn on each image that contained tumor and then multiplied by slice thickness to obtain the tumor volume. […] To avoid overestimation of tumor size, one half of the volume from the most dorsal and ventral images containing tumor were used in the volume analysis. Assuming a tumor density of 1 g/ml, tumor volumes (mm^3) were converted to weight (g) for analysis.

HN5 cell line = assay: MTT cell proliferation assay; type: cell-based; details: Homo sapiens, 72 h, 3-day incubation, read-out: IC50 (growth inhibition, MTT)
Description: (§1) To test the ability of paclitaxel and HA-paclitaxel to inhibit the proliferation of all human squamous cancer cell lines in vitro, a 3-(4,5-dimethylthiazol-2-yl)-2,5-diphenyltetrazolium bromide (MTT) assay was used. Two thousand cells per well were grown in DMEM medium supplemented with 10% FBS in 96-well tissue culture plates. After 24 h, the cells were treated with various concentrations of paclitaxel or HA-paclitaxel in DMEM medium supplemented with 2% FBS. To measure the number of metabolically active cells after a 3-day incubation period, an MTT assay as measured by a 96-well microtiter plate reader (MR-5000; Dynatech Laboratories Inc, Chantilly, Va.) at an optical density of 570 nm was used.
(§2) Quantified results of PCNA, CD31, and tumor volume were compared with Kruskal-Wallis and Wilcoxon rank-sum test, as appropriate. Survival was analyzed with the Kaplan-Meier method. Differences between the treatment and control groups were compared with the log-rank test. A two-tailed p<0.05 was considered significant.

[1] = tested on: OSC19-luciferase cell line; assay: MTT cell proliferation assay; type: cell-based; details: Homo sapiens, 72 h, 3-day incubation, read-out: IC50 (growth inhibition, MTT)
Description: as §1, §2

[2] = tested on: OSC19-luciferase xenografts; assay: Orthotopic nude mouse model of oral tongue SCC, OSC19-luciferase; type: in vivo, nude mice
HN5 xenografts = assay: Orthotopic nude mouse model of oral tongue SCC, HN5; type: in vivo, nude mice
[3] = tested on: CD31/PECAM (microvessel density); assay: Microvessel density by CD31 staining of tumor sections; type: in vivo, nude mice; details: weekly i.v. injections
Description: Frozen tissues were sectioned into 8- to 10-μm slices and used for detection of CD31/platelet/endothelial cell adhesion molecule 1 (CD31/PECAM). The slices were mounted on positively charged Plus slides (Fisher Scientific, Pittsburgh, Pa.) and air-dried for 30 minutes; fixed sequentially in cold acetone (5 minutes), 1:1 acetone/chloroform (v/v; 5 minutes), and acetone (5 minutes), and then washed with PBS. Immunohistochemical procedures were done as described previously with the primary antibody diluted 1:400. Peroxidase-conjugated secondary antibody was used for immunohistochemical analysis of CD31/PECAM. Bleaching of fluorescence was minimized by covering the slides with 90% glycerol and 10% PBS. The slides were incubated with stable 3,3′-diaminobenzidine for 10 to 20 minutes and then examined for the presence of CD31/PECAM. The sections were rinsed with distilled water, counterstained with Gill's hematoxylin for 1 minute, and mounted with Universal Mount (Research Genetics, Huntsville, Ala.).
To quantify microvessel density (MVD), areas containing higher numbers of tumor-associated blood vessels were identified at low microscopic power (100×). Vessels completely stained with anti-CD31 antibodies were counted in three random 0.04-mm^2 fields per slide at 200× magnification.

[4] = plasma; IP administration; data from Banzato et al.; cited from earlier work

In the case of `CC(=O)O[C@H]1C(=O)[C@@]2(C)[C@H]([C@H](OC(=O)c3ccccc3)[C@]3(O)C[C@H](OC(=O)[C@H](O)[C@@H](NC(=O)c4ccccc4)c4ccccc4)C(C)=C1C3(C)C)[C@]1(OC(C)=O)CO[C@@H]1C[C@@H]2O` [Taxol, Paclitaxel], the T/C (NMP-1 xenografts; 10 mg/kg) is reported as ~105, the “Mean Day of Survival/Sacrifice” value (NMP-1 xenografts; 10 mg/kg) is reported as 32.6 ± 5.6 days and the T/C (NMP-1 xenografts; 15 mg/kg) is reported as ~120. For the same molecule, the “Mean Day of Survival/Sacrifice” value (NMP-1 xenografts; 15 mg/kg) was 37.6 ± 9.3 days, the “Activity by MR imaging and survival criteria” value (NMP-1 xenografts; multiple-dose regimens, 10 or 15 mg/kg) was “essentially inactive” and the IC50 (HN5 cell line) was 4.58 nM. For the same molecule, the IC50 [1] was 2.16 nM, the Median survival time ([2]; OSC19-luciferase, 3 weekly i.v. injections, control 30 days) was 60 days and the “Reduction of bioluminescence as opposed to control” value ([2]; OSC19-luciferase, one week after the last treatment) was 86.5%. For the same molecule, the “Reduction of tumor growth” value ([2]; OSC19, one week after the last of 3 weekly i.v. treatments, HA-paclitaxel 120 mg/kg paclitaxel equivalent, paclitaxel 10 mg/kg) was 64.2%, the Median survival time (HN5 xenografts; 3 weekly i.v. injections, control 26 days) was 40 days and the “Reduction of tumor growth” value (HN5 xenografts; one week after the last of 3 weekly i.v. treatments, HA-paclitaxel 120 mg/kg paclitaxel equivalent, paclitaxel 10 mg/kg) was 63.8%. The “Effect on microvessel density (MVD)” value [3] was “no effect on MVD” and the AUC [4] was 144 µg·h/mL.
